Test results as given in patent EP0293880B1, “Antihyperlipidemic and antiatherosclerotic urea compounds” (priority 1987, dated 1988).

system: not listed separately; experiment: In vivo screen PCC (cholesterol-fed rats, total blood cholesterol); set-up: species or system male Sprague-Dawley rats; details: change of total blood cholesterol versus control; 0.05% of the test drug in the diet; after one week
Source text: In one in vivo screen, designated PCC, male Sprague-Dawley rats (approximately 200 g body weight) are randomly divided into groups and provided ad libidum a regular chow diet (Purina No. 5002, Ralston Purina Co., 711 West Fuesser Road, Mascoutah, Illinois, 62224, USA), supplemented with 5.5% peanut oil, 1.5% cholesterol, and 0.3%-0.5% cholic acid, together with 0.05% of the test drug which is admixed into the diet. After one week the animals are etherized and a blood sample is taken from the heart and mixed with 0.14% ethylenediamine tetraacetic acid (EDTA) to measure the total cholesterol.

| Compound | % Change |
| --- | --- |
| CC(C)c1cccc(C(C)C)c1NC(=O)NCC1(c2ccccc2)CCCC1 [Example 13, N-[2,6-bis(1-methylethyl)phenyl]-N'-[(1-phenylcyclopentyl)methyl]urea] | -73% |
| CC(C)c1cccc(C(C)C)c1NC(=O)NC1(c2cccs2)CCCCC1 [Example 8, N-[2,6-bis(1-methylethyl)]-N'-[1-(2-thienyl)cyclohexyl]urea] | -69% |

same assay, conditions: rats on chow diet with 5.5% peanut oil, 1.5% cholesterol, 0.3%-0.5% cholic acid; 0.05% of the test drug admixed into the diet; after one week

| Compound | Total Blood Cholesterol |
| --- | --- |
| CC(C)c1cccc(C(C)C)c1NC(=O)NCC1(c2ccccc2)CCCC1 [Example 13, N-[2,6-bis(1-methylethyl)phenyl]-N'-[(1-phenylcyclopentyl)methyl]urea] | 61 (Control = 224) mg/dl |
| CC(C)c1cccc(C(C)C)c1NC(=O)NC1(c2cccs2)CCCCC1 [Example 8, N-[2,6-bis(1-methylethyl)]-N'-[1-(2-thienyl)cyclohexyl]urea] | 60 (Control = 181) mg/dl |

target: acyl-CoA:cholesterol acyl-transferase (ACAT); experiment: In vitro ACAT inhibition test (radio-labeled cholesterol oleate formed from radio-labeled oleic acid in rabbit intestinal microsomes); type: biochemical; details: tissue preparation containing rabbit intestinal microsomes; concentration required to inhibit 50% expression of the enzyme; read-out: IC₅₀
Experimental: The ability of representative compounds of the present invention to inhibit ACAT was measured using an in vitro test more fully described in Field, F. J. and Salone, R. G., Biochemica et Biophysica 712: 557-570 (1982). The test assesses the ability of a test compound to inhibit the acylation of cholesterol by oleic acid by measuring the amount of radio-labeled cholesterol oleate formed from radio-labeled oleic acid in a tissue preparation containing rabbit intestinal microsomes. The data appear in Table 1 where they are expressed as IC₅₀ values; i.e. the concentration of test compound required to inhibit 50% expression of the enzyme.

| Compound | IC50 |
| --- | --- |
| O=C(NCC1(c2ccccc2)CCCCC1)Nc1ccc(F)cc1F [Example 25, N-(2,4-difluorophenyl)-N'-[(1-phenylcyclohexyl)methyl]urea] | 790 nM |
| CCc1cccc(C(C)C)c1NC(=O)NCC1(c2ccccc2)CCCCC1 [Example 19, N-[2-ethyl-6-(1-methylethyl)-phenyl]-N'-[(1-phenylcyclohexyl)methyl]urea] | 20 nM |
| Cc1cccc(C(C)C)c1NC(=O)NC1(c2cccs2)CCCCC1 [Example 15, N-[2-methyl-6-(1-methylethyl)-phenyl]-N'-[1-(2-thienyl)cyclohexyl]urea] | 230 nM |
| CCc1cccc(CC)c1NC(=O)NC1(c2ccccc2)CCC1 [Example 2, N-(2,6-diethylphenyl)-N'-(1-phenylcyclobutyl)urea] | 230 nM |
| CC(C)c1cccc(C(C)C)c1NC(=O)NCC1(c2ccccc2)CCCC1 [Example 13, N-[2,6-bis(1-methylethyl)phenyl]-N'-[(1-phenylcyclopentyl)methyl]urea] | 17 nM |
| Cc1cccc(C)c1NC(=O)NCC1(c2ccccc2)CCCCC1 [Example 11, N-(2,6-dimethylphenyl)-N'-[(1-phenylcyclohexyl)methyl]urea] | 81 nM |
| CC(C)c1cccc(C(C)C)c1NC(=O)NC1(c2cccs2)CCCCC1 [Example 8, N-[2,6-bis(1-methylethyl)]-N'-[1-(2-thienyl)cyclohexyl]urea] | 43 nM |
| COc1cc(OC)c(NC(=O)NC2(c3ccccc3)CCCC2)c(OC)c1 [Example 5, N-(1-phenylcyclopentyl)-N'-(2,4,6-trimethoxyphenyl)urea] | 700 nM |
| Cc1cccc(C)c1NC(=O)NCC1(c2ccccc2)CCCC1 [Example 10, N-(2,6-dimethylphenyl)-N'-[(1-phenylcyclopentyl)methyl]urea] | 154 nM |
| CCc1cccc(CC)c1NC(=O)NCC1(c2ccccc2)CC1 [Example 4, N-(2,6-diethylphenyl)-N'-[(1-phenylcyclopropyl)methyl]urea] | 88 nM |
| CCc1cccc(CC)c1NC(=O)NC1(c2cccs2)CCCCC1 [Example 7, N-(2,6-diethylphenyl)-N'-[1-(2-thienyl)cyclohexyl]urea] | 48 nM |
| CCc1cccc(CC)c1NC(=O)NCC1(c2ccccc2)CCCCC1 [Example 9, N-(2,6-diethylphenyl)-N'-[(1-phenylcyclohexyl)methyl]urea] | 51 nM |
| CCc1cccc(CC)c1NC(=O)NC1(c2ccccc2)CCCC1 [Example 3, N-(2,6-diethylphenyl)-N'-(1-phenylcyclopentyl)urea] | 120 nM |
| Cc1cccc(C)c1NC(=O)NC1(c2cccs2)CCCCC1 [Example 6, N-(2,6-dimethylphenyl)-N'-[1-(2-thienyl)cyclohexyl]urea] | 130 nM |
| O=C(NCC1(c2ccccc2)CCCC1)Nc1ccc(F)cc1F [Example 24, N-(2,4-difluorophenyl)-N'-[(1-phenylcyclopentyl)methyl]urea] | 1280 nM |
| Cc1cccc(C(C)(C)C)c1NC(=O)NCC1(c2ccccc2)CCCCC1 [Example 18, N-[2-(1,1-dimethylethyl)-6-methylphenyl]-N'-[(1-phenylcyclohexyl)methyl]-urea] | 54 nM |
| CCc1cccc(C(C)C)c1NC(=O)NCC1(c2ccccc2)CCCC1 [Example 22, N-[2-ethyl-6-(1-methylethyl)-phenyl]-N'-[(1-phenylcyclopentyl)methyl]urea] | 25 nM |
| Cc1cccc(C)c1NC(=O)NC1(c2ccccc2)CCCC1 [Example 1, N-(2,6-dimethylphenyl)-N'-(1-phenylcyclopentyl)urea] | 80 nM |
| Cc1cccc(C(C)(C)C)c1NC(=O)NCC1(c2ccccc2)CCCC1 [Example 21, N-[2-(1,1-dimethylethyl)-6-methylphenyl]-N'-[(1-phenylcyclopentyl)methyl]-urea] | 18 nM |
| Cc1cccc(C(C)C)c1NC(=O)NCC1(c2ccccc2)CCCC1 [Example 20, N-[2-methyl-6-(1-methylethyl)-phenyl]-N'-[(1-phenylcyclopentyl)methyl]urea] | 16 nM |
| Cc1cccc(C(C)(C)C)c1NC(=O)NC1(c2cccs2)CCCCC1 [Example 16, N-[2-(1,1-dimethylethyl)-6-methyl-phenyl]-N'-[1-(2-thienyl)cyclohexyl]urea] | 256 nM |
| Cc1cccc(C(C)C)c1NC(=O)NCC1(c2ccccc2)CCCCC1 [Example 17, N-[2-methyl-6-(1-methylethyl)-phenyl]-N'-[(1-phenylcyclohexyl)methyl]urea] | 58 nM |
| CCc1cccc(CC)c1NC(=O)NCC1(c2ccccc2)CCCC1 [Example 12, N-(2,6-diethylphenyl)-N'-[(1-phenylcyclopentyl)methyl]urea] | 15 nM |
| O=C(Nc1ccc(F)cc1F)NC1(c2cccs2)CCCCC1 [Example 23, N-(2,4-difluorophenyl)-N'-[1-(2-thienyl)cyclohexyl]urea] | 370 nM |
| O=C(NCC1(c2ccccc2)CCCCC1)Nc1c(Br)cc(F)cc1Br [Example 26, N-(2,6-dibromo-4-fluorophenyl)-N'-[(1-phenyl-cyclohexyl)methyl]urea] | 39 nM |
| CC(C)c1cccc(C(C)C)c1NC(=O)NCC1(c2ccccc2)CCCCC1 [Example 14] | 21 nM |
